Assay [1] concerns Mus musculus. The experiment in a line: Antiamnesic activity in mouse assessed as inhibition of scopolamine-induced escape latency time at 10 mg/kg, ip measured on day 4 by Morris water maze test (reference value: 78.7 +/- 5.7 secs). The assay is classed as functional. The settings on record: route intraperitoneal.
In another assay the target is T1, Acetylcholinesterase (Rattus norvegicus, UniProt P37136).
T1 sequence (P37136 whole entry): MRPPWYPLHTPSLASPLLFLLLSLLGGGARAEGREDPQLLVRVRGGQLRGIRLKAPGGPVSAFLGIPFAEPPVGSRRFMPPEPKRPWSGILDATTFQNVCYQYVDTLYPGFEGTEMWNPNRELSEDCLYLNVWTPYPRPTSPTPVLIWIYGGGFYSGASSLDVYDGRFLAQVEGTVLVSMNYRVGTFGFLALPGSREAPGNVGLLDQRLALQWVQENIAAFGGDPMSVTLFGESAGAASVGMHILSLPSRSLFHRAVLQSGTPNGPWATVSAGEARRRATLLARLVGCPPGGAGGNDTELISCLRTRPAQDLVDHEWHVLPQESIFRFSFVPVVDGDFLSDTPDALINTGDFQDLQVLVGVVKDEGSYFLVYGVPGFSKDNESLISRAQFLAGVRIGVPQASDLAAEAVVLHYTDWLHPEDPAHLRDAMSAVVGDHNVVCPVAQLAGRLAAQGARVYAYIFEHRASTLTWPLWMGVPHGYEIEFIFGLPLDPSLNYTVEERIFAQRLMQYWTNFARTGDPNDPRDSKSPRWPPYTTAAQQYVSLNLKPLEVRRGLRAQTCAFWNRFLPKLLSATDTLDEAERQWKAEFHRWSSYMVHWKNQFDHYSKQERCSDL
The experiment in a line: Inhibition of AChE activity in rat brain homogenate using acetylthiocholine as substrate by Ellman's method. The assay is classed as tissue-based. A general note: Ellman's reagent forms a yellow product with free thiols.

For assay [2], the system named is Mus musculus. Put plainly: Antiamnesic activity in mouse assessed as inhibition of scopolamine-induced escape latency time at 5 mg/kg, ip measured on day 4 by Morris water maze test (reference value: 78.7 +/- 5.7 secs). The settings on record: route intraperitoneal. It counts as functional.
Assay [3] has as its system Mus musculus. The experiment in a line: Antiamnesic activity in mouse assessed as inhibition of scopolamine-induced escape latency time at 2 mg/kg, ip measured on day 4 by Morris water maze test (reference value: 78.7 +/- 5.7 secs). It counts as functional. The settings on record: route intraperitoneal.
Assay [4] concerns Mus musculus. Put plainly: Antiamnesic activity in scopolamine-induced amnesia mouse model assessed as increase in time spent in target quadrant at 5 mg/kg, ip measured on day 5 by Morris water maze test. The assay is classed as functional, organism-based. Also on record: dose 5 mg/kg.
Assay [5] has as its system Mus musculus. Put plainly: Antiamnesic activity in mouse assessed as inhibition of scopolamine-induced escape latency time at 2 mg/kg, ip measured on day 1 by Morris water maze test (reference value: 89.7 +/- 3.8 secs). The assay is classed as functional. The settings on record: route intraperitoneal.
Assay [6] relates to Mus musculus. Put plainly: Antiamnesic activity in scopolamine-induced amnesia mouse model assessed as increase in time spent in target quadrant at 10 mg/kg, ip measured on day 5 by Morris water maze test. It counts as functional, organism-based. Also on record: dose 10 mg/kg.
The target in another assay is Butyrylcholinesterase (Rattus norvegicus, UniProt Q9JKC1). Put plainly: Inhibition of BuChE activity in rat plasma using […] as substrate by Ellman's method. The assay is classed as cell-free.
Sequence of Butyrylcholinesterase (Q9JKC1 whole entry): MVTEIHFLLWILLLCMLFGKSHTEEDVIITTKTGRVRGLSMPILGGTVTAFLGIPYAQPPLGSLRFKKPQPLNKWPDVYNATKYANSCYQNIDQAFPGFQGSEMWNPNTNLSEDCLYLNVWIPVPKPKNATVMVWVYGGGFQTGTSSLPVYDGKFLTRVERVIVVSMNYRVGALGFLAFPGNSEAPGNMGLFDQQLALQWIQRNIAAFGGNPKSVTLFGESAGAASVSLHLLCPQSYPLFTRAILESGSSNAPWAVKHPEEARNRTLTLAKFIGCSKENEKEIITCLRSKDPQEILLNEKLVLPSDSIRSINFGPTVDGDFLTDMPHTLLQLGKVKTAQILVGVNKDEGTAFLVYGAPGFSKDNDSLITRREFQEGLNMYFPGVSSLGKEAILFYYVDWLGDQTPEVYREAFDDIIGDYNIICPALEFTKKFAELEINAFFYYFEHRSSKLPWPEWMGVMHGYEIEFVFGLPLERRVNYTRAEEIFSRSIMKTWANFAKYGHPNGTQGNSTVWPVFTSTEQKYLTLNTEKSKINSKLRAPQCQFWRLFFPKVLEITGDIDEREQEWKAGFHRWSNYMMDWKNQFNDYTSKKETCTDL
Assay [7] concerns Mus musculus. Put plainly: Antiamnesic activity in mouse assessed as inhibition of scopolamine-induced escape latency time at 5 mg/kg, ip measured on day 1 by Morris water maze test (reference value: 89.7 +/- 3.8 secs). The settings on record: route intraperitoneal. The assay is classed as functional.
The subject of assay [8] is Mus musculus. The experiment in a line: Antiamnesic activity in mouse assessed as inhibition of scopolamine-induced escape latency time at 10 mg/kg, ip measured on day 1 by Morris water maze test (reference value: 89.7 +/- 3.8 secs). The assay is classed as functional. The settings on record: route intraperitoneal.

Calls of active or inactive are those of the source. No cut-off for these calls is given here.

The IC50 is the point on the concentration scale where inhibition reaches its midpoint. Low readings indicate greater potency in that assay, high ones weaker potency in that assay. On to `COc1ccc([C@H]2[C@H]3C(=O)N(c4ccc(C(=O)O)cc4)C(=O)[C@H]3ON2c2ccc(C)cc2)cc1` (relative stereo), for which the Time in the assay on Mus musculus [1] is recorded as 49.1 s; in the assay on Mus musculus [2], 69.5 s; with Mus musculus [3], 74.8 s; with Mus musculus [5], 83.7 s; with Mus musculus [7], 85.2 s; in the assay on Mus musculus [8] it was 81.2 s. Also, the 50% inhibitory concentration (IC50) against Acetylcholinesterase was determined as 0.0175 µM; on Butyrylcholinesterase it was 15.3 µM. Further, the outcome with Mus musculus [4] and with Mus musculus [6] was Active.

Source of the values: ChEMBL document CHEMBL2069196, “Synthesis and evaluation of novel 4-[(3H,3aH,6aH)-3-phenyl)-4,6-dioxo-2-phenyldihydro-2H-pyrrolo[3,4-d]isoxazol-5(3H,6H,6aH)-yl]benzoic acid derivatives as potent acetylcholinesterase inhibitors and anti-amnestic agents” (Bioorg Med Chem, 2012).
